Assay type in all cases: functional
In one test the test system is Enterococcus faecalis. In words: Compound was evaluated for antibacterial activity against Enterococcus faecalis (MB5407) sensitive strain.
Another test deals with Staphylococcus aureus. In words: Compound was evaluated for antibacterial activity against Staphylococcus aureus (MB2865) sensitive strain.
In the next test the test system is Enterococcus faecium. In words: Compound was evaluated for antibacterial activity against Enterococcus faecium (MB5516) sensitive strain.
In a further test the test system is Streptococcus pneumoniae. In words: Compound was evaluated for antibacterial activity against Streptococcus pneumoniae (MB3957) sensitive strain.
The next test has as its system Streptococcus pyogenes. In words: Compound was evaluated for antibacterial activity against Streptococcus pyogenes (MB2874) sensitive strain.
The next test relates to Bacillus subtilis. In words: Compound was evaluated for antibacterial activity against Bacillus subtilis (MB5586) sensitive strain.

≈ marks a conversion by molar mass, not a printed value.

For orientation: MIC means the least concentration at which growth counts as inhibited. Regarding `CC[C@H]1OC(=O)[C@H](C)[C@@H](O[C@H]2C[C@@](C)(OC)[C@H](O)[C@H](C)O2)[C@H](C)[C@@H](O[C@@H]2O[C@H](C)C[C@H](N(C)C)[C@H]2O)[C@](C)(O)C[C@@H](C)N(C)C[C@H](C)[C@@H](O)[C@]1(C)O`, the MIC in the test on Enterococcus faecalis is 2 µg/mL (≈ 2.67 µM); against Staphylococcus aureus, 0.3 µg/mL (≈ 0.401 µM); against Enterococcus faecium it was 0.125 µg/mL (≈ 0.167 µM); against Streptococcus pneumoniae, < 0.06 µg/mL; in the test on Streptococcus pyogenes it was < 0.06 µg/mL; with Bacillus subtilis, 0.3 µg/mL (≈ 0.401 µM).
For the compound `CC[C@H]1OC(=O)[C@H](C)[C@@H](O[C@H]2C[C@@](C)(OC)[C@@H](OC)[C@@H](C)O2)[C@H](C)[C@@H](O[C@@H]2O[C@H](C)C[C@@H](N(C)C)[C@H]2O)[C@](C)(O)C[C@@H](C)N(C)C[C@H](C)[C@@H](OC)[C@]1(C)OC`, the minimal inhibitory concentration (MIC) against Enterococcus faecalis worked out at 32 µg/mL (≈ 40.5 µM); against Staphylococcus aureus, 32 µg/mL (≈ 40.5 µM); with Enterococcus faecium, 8 µg/mL (≈ 10.1 µM); in the test with Streptococcus pneumoniae, 4 µg/mL (≈ 5.06 µM); in the test on Streptococcus pyogenes, 0.5 µg/mL (≈ 0.632 µM); with Bacillus subtilis it was 2 µg/mL (≈ 2.53 µM).
`CC[C@H]1OC(=O)[C@H](C)[C@@H](O[C@H]2C[C@@](C)(OC)[C@@H](O)[C@@H](C)O2)[C@H](C)[C@@H](O[C@@H]2O[C@H](C)C[C@@H](N(C)C)[C@H]2O)[C@](C)(OC)C[C@@H](C)N(C)C[C@H](C)[C@@H](O)[C@]1(C)O`: the MIC with Enterococcus faecalis was 16 µg/mL (≈ 21 µM); in the test with Staphylococcus aureus, 2 µg/mL (≈ 2.62 µM); in the test on Enterococcus faecium, 1 µg/mL (≈ 1.31 µM); in the test with Streptococcus pneumoniae, 0.5 µg/mL (≈ 0.655 µM); against Streptococcus pyogenes, 0.06 µg/mL (≈ 0.0786 µM); against Bacillus subtilis it was 1 µg/mL (≈ 1.31 µM).
`CC[C@H]1OC(=O)[C@H](C)[C@@H](O[C@H]2C[C@@](C)(OC)[C@@H](O)[C@@H](C)O2)[C@H](C)[C@@H](O[C@@H]2O[C@H](C)C[C@@H](N(C)C)[C@H]2O)[C@](C)(OC)C[C@@H](C)CN(C)[C@H](C)[C@@H](O)[C@]1(C)O`: the minimum inhibitory concentration (MIC) with Enterococcus faecalis turned out to be 8 µg/mL (≈ 10.5 µM); in the test with Staphylococcus aureus, 2 µg/mL (≈ 2.62 µM); against Enterococcus faecium, 1 µg/mL (≈ 1.31 µM); in the test with Streptococcus pneumoniae, 0.5 µg/mL (≈ 0.655 µM); against Streptococcus pyogenes it was 0.12 µg/mL (≈ 0.157 µM); against Bacillus subtilis, 1 µg/mL (≈ 1.31 µM).
As for `CC[C@H]1OC(=O)[C@H](C)[C@@H](O[C@H]2C[C@@](C)(OC)[C@@H](OC)[C@@H](C)O2)[C@H](C)[C@@H](O[C@@H]2O[C@H](C)C[C@@H](N(C)C)[C@H]2O)[C@](C)(O)C[C@@H](C)N(C)C[C@H](C)[C@@H](O)[C@]1(C)O`, the minimum inhibitory concentration (MIC) in the test with Enterococcus faecalis turned out to be 8 µg/mL (≈ 10.5 µM); against Staphylococcus aureus it was 8 µg/mL (≈ 10.5 µM); in the test with Enterococcus faecium, 2 µg/mL (≈ 2.62 µM); with Streptococcus pneumoniae, 0.5 µg/mL (≈ 0.655 µM); with Streptococcus pyogenes, 0.03 µg/mL (≈ 0.0393 µM); in the test with Bacillus subtilis, 4 µg/mL (≈ 5.24 µM).
As to `CC[C@H]1OC(=O)[C@H](C)[C@@H](O[C@H]2C[C@@](C)(OC)[C@@H](OC)[C@@H](C)O2)[C@H](C)[C@@H](O[C@@H]2O[C@H](C)C[C@@H](N(C)C)[C@H]2O)[C@](C)(OC)C[C@@H](C)N(C)C[C@H](C)[C@@H](OC)[C@]1(C)OC`, the MIC in the test with Enterococcus faecalis stood at 32 µg/mL (≈ 39.7 µM); with Staphylococcus aureus, 32 µg/mL (≈ 39.7 µM); against Enterococcus faecium, 8 µg/mL (≈ 9.94 µM); against Streptococcus pneumoniae it was 4 µg/mL (≈ 4.97 µM); in the test with Streptococcus pyogenes, 0.5 µg/mL (≈ 0.621 µM); with Bacillus subtilis it was 8 µg/mL (≈ 9.94 µM).
Turning to `CC[C@H]1OC(=O)[C@H](C)[C@@H](O[C@H]2C[C@@](C)(OC)[C@@H](O)[C@H](C)O2)[C@H](C)[C@@H](O[C@@H]2O[C@H](C)C[C@H](N(C)C)[C@H]2O)[C@](C)(O)C[C@@H](C)CN(C)[C@H](C)[C@@H](O)[C@]1(C)O` [AZITHROMYCIN], the MIC was 4 µg/mL (≈ 5.34 µM) with Enterococcus faecalis; 0.5 µg/mL (≈ 0.668 µM) with Staphylococcus aureus; 0.25 µg/mL (≈ 0.334 µM) in the test with Enterococcus faecium; < 0.06 µg/mL against Streptococcus pneumoniae; 0.03 µg/mL (≈ 0.0401 µM) in the test on Streptococcus pyogenes; 1 µg/mL (≈ 1.34 µM) against Bacillus subtilis.

The values are drawn from ChEMBL document CHEMBL1130816, “Synthesis and antibacterial activity of O-methyl derivatives of azalide antibiotics: II. 6-OME derivatives via clarithromycin” (1998).
